Measurements as given in patent US20260232767A1, “INTERLEUKIN-23 RECEPTOR ANTAGONIST PEPTIDES FOR USE IN THE TREATMENT OF PSORIASIS” (Janssen Pharmaceutica NV, priority 2023, published 2026).

System: subjects with moderate-to-severe plaque psoriasis
Assay: IGA score, Example 2
Assay type: in vivo, human
Settings: for Subjects achieving IGA Score = 0 at Week 52 / Subjects achieving IGA Score = 0 or 1 at Week 52: non-responder imputation
Text: Described below is a multicenter, long-term extension (LTE), double-blind, dose-ranging, parallel group interventional study in participants from Example 1 to evaluate the long-term efficacy and safety of the hydrochloride salt of the compound of Formula (I) for the treatment of moderate-to-severe plaque psoriasis. Patients from Example 1 continued to receive the same dose of the compound of Formula (I) for an additional 36-week treatment period with a 4-week safety follow up period after the last administration of the compound of Formula (I). Patients randomized to placebo in Example 1 received the compound of Formula (I) at a dose of 100 mg QD starting at Week 16 of Example 1 (FIG. 21).
Secondary endpoints included additional change from baseline of Example 1 in PASI, IGA, and PSSD at Week 52, including the proportions of subjects that achieved PAST 90, PAST 100, an IGA score of cleared (0) or minimal (1), PSSD symptoms score=0, and PSSD signs score=0.

[1] = Placebo → 100 mg QD, crossed over at or after Week 16

Structure (SMILES): CC(=O)NCCCC[C@@H]1NC(=O)[C@H](Cc2c[nH]c3c(C)cccc23)NC(=O)[C@H]([C@@H](C)O)NC(=O)[C@H](CC(N)=O)NC(=O)[C@@H](NC(C)=O)C(C)(C)SSC(C)(C)[C@@H](C(=O)N[C@@H](Cc2ccc(OCCN)cc2)C(=O)N[C@@H](Cc2ccc3ccccc3c2)C(=O)NC2(C(=O)N[C@@H](CCC(=O)O)C(=O)N[C@@H](CC(N)=O)C(=O)N[C@@H](Cc3cccnc3)C(=O)N(C)CC(N)=O)CCOCC2)NC1=O [IL-23 receptor antagonist peptide, Ac-[Pen]*-N-T-[W(7-Me)]-[Lys(Ac)]-[Pen]*-Phe[4-(2-aminoethoxy)]-[2-Nal]-[THP]-E-N-[3-Pal]-Sarc-NH2 (*[Pen]-[Pen]* formdisulfidebond)]
- Subjects achieving IGA Score = 0 at Week 52 (25 mg BID): (19.5%)
- Subjects achieving IGA Score = 0 or 1 at Week 52 (25 mg BID): (46.3%)
- Subjects achieving IGA Score = 0 at Week 52 (25 mg QD): (14.0%)
- Subjects achieving IGA Score = 0 or 1 at Week 52 (25 mg QD): (37.2%)
- Subjects achieving IGA Score = 0 at Week 52 (50 mg QD): (23.3%)
- Subjects achieving IGA Score = 0 or 1 at Week 52 (50 mg QD): (60.5%)
- Subjects achieving IGA Score = 0 at Week 52 [1]: 11 (31.4%)
- Subjects achieving IGA Score = 0 or 1 at Week 52 [1]: 23 (65.7%)
- IGA Score ≤2 (‘Mild’or better), subjects (%) (Week 1, 25 mg BID, N=41): (7.3%)
- IGA Score ≤2 (‘Mild’or better), subjects (%) (Week 1, 25 mg QD, N=43): (14.0%)
- IGA Score = 0 (‘Cleared’) or 1 (‘Minimal’), subjects (%) (Week 1, 50 mg QD, N=43): (2.3%)
- IGA Score ≤2 (‘Mild’or better), subjects (%) (Week 1, 50 mg QD, N=43): (16.3%)
- IGA Score = 0 (‘Cleared’) or 1 (‘Minimal’), subjects (%) (Week 1, 100 mg BID, N=42): (2.4%)
- IGA Score ≤2 (‘Mild’or better), subjects (%) (Week 1, 100 mg BID, N=42): (23.8%)
- IGA Score = 0 (‘Cleared’) or 1 (‘Minimal’), subjects (%) (Week 1, 100 mg QD, N=43): (4.7%)
- IGA Score ≤2 (‘Mild’or better), subjects (%) (Week 1, 100 mg QD, N=43): (9.3%)
- IGA Score = 0 (‘Cleared’) or 1 (‘Minimal’), subjects (%) (Week 2, 25 mg BID, N=41): (2.4%)
- IGA Score ≤2 (‘Mild’or better), subjects (%) (Week 2, 25 mg BID, N=41): (22.0%)
- IGA Score ≤2 (‘Mild’or better), subjects (%) (Week 2, 25 mg QD, N=43): (20.9%)
- IGA Score = 0 (‘Cleared’) or 1 (‘Minimal’), subjects (%) (Week 2, 50 mg QD, N=43): (7.0%)
- IGA Score ≤2 (‘Mild’or better), subjects (%) (Week 2, 50 mg QD, N=43): (34.9%)
- IGA Score = 0 (‘Cleared’) or 1 (‘Minimal’), subjects (%) (Week 2, 100 mg BID, N=42): (9.5%)
- IGA Score ≤2 (‘Mild’or better), subjects (%) (Week 2, 100 mg BID, N=42): (33.3%)
- IGA Score = 0 (‘Cleared’) or 1 (‘Minimal’), subjects (%) (Week 2, 100 mg QD, N=43): (4.7%)
- IGA Score ≤2 (‘Mild’or better), subjects (%) (Week 2, 100 mg QD, N=43): (34.9%)
- IGA Score = 0 (‘Cleared’) or 1 (‘Minimal’), subjects (%) (Week 4, 25 mg BID, N=41): (17.1%)
- IGA Score ≤2 (‘Mild’or better), subjects (%) (Week 4, 25 mg BID, N=41): (51.2%)
- IGA Score = 0 (‘Cleared’) or 1 (‘Minimal’), subjects (%) (Week 4, 25 mg QD, N=43): (9.3%)
- IGA Score ≤2 (‘Mild’or better), subjects (%) (Week 4, 25 mg QD, N=43): (44.2%)
- IGA Score = 0 (‘Cleared’) or 1 (‘Minimal’), subjects (%) (Week 4, 50 mg QD, N=43): (16.3%)
- IGA Score ≤2 (‘Mild’or better), subjects (%) (Week 4, 50 mg QD, N=43): (48.8%)
- IGA Score = 0 (‘Cleared’) or 1 (‘Minimal’), subjects (%) (Week 4, 100 mg BID, N=42): (38.1%)
- IGA Score ≤2 (‘Mild’or better), subjects (%) (Week 4, 100 mg BID, N=42): (69.0%)
- IGA Score = 0 (‘Cleared’) or 1 (‘Minimal’), subjects (%) (Week 4, 100 mg QD, N=43): (20.9%)
- IGA Score ≤2 (‘Mild’or better), subjects (%) (Week 4, 100 mg QD, N=43): (65.1%)
- IGA Score = 0 (‘Cleared’) or 1 (‘Minimal’), subjects (%) (Week 8, 25 mg BID, N=41): (26.8%)
- IGA Score = 0 (‘Cleared’), subjects (%) (Week 8, 25 mg BID, N=41): (4.9%)
- IGA Score ≤2 (‘Mild’or better), subjects (%) (Week 8, 25 mg BID, N=41): (73.2%)
- IGA Score = 0 (‘Cleared’) or 1 (‘Minimal’), subjects (%) (Week 8, 25 mg QD, N=43): (27.9%)
- IGA Score = 0 (‘Cleared’), subjects (%) (Week 8, 25 mg QD, N=43): (2.3%)
- IGA Score ≤2 (‘Mild’or better), subjects (%) (Week 8, 25 mg QD, N=43): (55.8%)
- IGA Score = 0 (‘Cleared’) or 1 (‘Minimal’), subjects (%) (Week 8, 50 mg QD, N=43): (44.2%)
- IGA Score = 0 (‘Cleared’), subjects (%) (Week 8, 50 mg QD, N=43): (4.7%)
- IGA Score ≤2 (‘Mild’or better), subjects (%) (Week 8, 50 mg QD, N=43): (74.4%)
- IGA Score = 0 (‘Cleared’) or 1 (‘Minimal’), subjects (%) (Week 8, 100 mg BID, N=42): (64.3%)
- IGA Score = 0 (‘Cleared’), subjects (%) (Week 8, 100 mg BID, N=42): (19.0%)
- IGA Score ≤2 (‘Mild’or better), subjects (%) (Week 8, 100 mg BID, N=42): (78.6%)
- IGA Score = 0 (‘Cleared’) or 1 (‘Minimal’), subjects (%) (Week 8, 100 mg QD, N=43): (46.5%)
- IGA Score = 0 (‘Cleared’), subjects (%) (Week 8, 100 mg QD, N=43): (9.3%)
- IGA Score ≤2 (‘Mild’or better), subjects (%) (Week 8, 100 mg QD, N=43): (72.1%)
- IGA Score = 0 (‘Cleared’) or 1 (‘Minimal’), subjects (%) (Week 12, 25 mg BID, N=41): (43.9%)
- IGA Score = 0 (‘Cleared’), subjects (%) (Week 12, 25 mg BID, N=41): (7.3%)
- IGA Score ≤2 (‘Mild’or better), subjects (%) (Week 12, 25 mg BID, N=41): (78.0%)
- IGA Score = 0 (‘Cleared’) or 1 (‘Minimal’), subjects (%) (Week 12, 25 mg QD, N=43): (25.6%)
- IGA Score = 0 (‘Cleared’), subjects (%) (Week 12, 25 mg QD, N=43): (7.0%)
- IGA Score ≤2 (‘Mild’or better), subjects (%) (Week 12, 25 mg QD, N=43): (72.1%)
- IGA Score = 0 (‘Cleared’) or 1 (‘Minimal’), subjects (%) (Week 12, 50 mg QD, N=43): (51.2%)
- IGA Score = 0 (‘Cleared’), subjects (%) (Week 12, 50 mg QD, N=43): (9.3%)
- IGA Score ≤2 (‘Mild’or better), subjects (%) (Week 12, 50 mg QD, N=43): (81.4%)
- IGA Score = 0 (‘Cleared’) or 1 (‘Minimal’), subjects (%) (Week 12, 100 mg BID, N=42): (66.7%)
- IGA Score = 0 (‘Cleared’), subjects (%) (Week 12, 100 mg BID, N=42): (40.5%)
- IGA Score ≤2 (‘Mild’or better), subjects (%) (Week 12, 100 mg BID, N=42): (85.7%)
- IGA Score = 0 (‘Cleared’) or 1 (‘Minimal’), subjects (%) (Week 12, 100 mg QD, N=43): (53.5%)
- IGA Score = 0 (‘Cleared’), subjects (%) (Week 12, 100 mg QD, N=43): (18.6%)
- IGA Score ≤2 (‘Mild’or better), subjects (%) (Week 12, 100 mg QD, N=43): (81.4%)
- IGA Score = 0 (‘Cleared’) or 1 (‘Minimal’), subjects (%) (Week 16, 25 mg BID, N=41): (51.2%)
- IGA Score = 0 (‘Cleared’), subjects (%) (Week 16, 25 mg BID, N=41): (14.6%)
- IGA Score ≤2 (‘Mild’or better), subjects (%) (Week 16, 25 mg BID, N=41): (73.2%)
- IGA Score = 0 (‘Cleared’) or 1 (‘Minimal’), subjects (%) (Week 16, 25 mg QD, N=43): (39.5%)
- IGA Score = 0 (‘Cleared’), subjects (%) (Week 16, 25 mg QD, N=43): (16.3%)
- IGA Score ≤2 (‘Mild’or better), subjects (%) (Week 16, 25 mg QD, N=43): (67.4%)
- IGA Score = 0 (‘Cleared’) or 1 (‘Minimal’), subjects (%) (Week 16, 50 mg QD, N=43): (58.1%)
- IGA Score = 0 (‘Cleared’), subjects (%) (Week 16, 50 mg QD, N=43): (34.9%)
- IGA Score ≤2 (‘Mild’or better), subjects (%) (Week 16, 50 mg QD, N=43): (81.4%)
- IGA Score = 0 (‘Cleared’) or 1 (‘Minimal’), subjects (%) (Week 16, 100 mg BID, N=42): (64.3%)
- IGA Score = 0 (‘Cleared’), subjects (%) (Week 16, 100 mg BID, N=42): (45.2%)
- IGA Score ≤2 (‘Mild’or better), subjects (%) (Week 16, 100 mg BID, N=42): (81.0%)
- IGA Score = 0 (‘Cleared’) or 1 (‘Minimal’), subjects (%) (Week 16, 100 mg QD, N=43): (62.8%)
- IGA Score = 0 (‘Cleared’), subjects (%) (Week 16, 100 mg QD, N=43): (27.9%)
- IGA Score ≤2 (‘Mild’or better), subjects (%) (Week 16, 100 mg QD, N=43): (79.1%)
- IGA Score = 0 (‘Cleared’) or 1 (‘Minimal’), subjects (%) (Week 20, 25 mg BID, N=41): (48.8%)
- IGA Score = 0 (‘Cleared’), subjects (%) (Week 20, 25 mg BID, N=41): (19.5%)
- IGA Score ≤2 (‘Mild’or better), subjects (%) (Week 20, 25 mg BID, N=41): (75.6%)
- IGA Score = 0 (‘Cleared’) or 1 (‘Minimal’), subjects (%) (Week 20, 25 mg QD, N=43): (44.2%)
- IGA Score = 0 (‘Cleared’), subjects (%) (Week 20, 25 mg QD, N=43): (14.0%)
- IGA Score ≤2 (‘Mild’or better), subjects (%) (Week 20, 25 mg QD, N=43): (65.1%)
- IGA Score = 0 (‘Cleared’) or 1 (‘Minimal’), subjects (%) (Week 20, 50 mg QD, N=43): (55.8%)
- IGA Score = 0 (‘Cleared’), subjects (%) (Week 20, 50 mg QD, N=43): (20.9%)
- IGA Score ≤2 (‘Mild’or better), subjects (%) (Week 20, 50 mg QD, N=43): (81.4%)
- IGA Score = 0 (‘Cleared’) or 1 (‘Minimal’), subjects (%) (Week 20, 100 mg BID, N=42): (61.9%)
- IGA Score = 0 (‘Cleared’), subjects (%) (Week 20, 100 mg BID, N=42): (42.9%)
- IGA Score ≤2 (‘Mild’or better), subjects (%) (Week 20, 100 mg BID, N=42): (81.0%)
- IGA Score = 0 (‘Cleared’) or 1 (‘Minimal’), subjects (%) (Week 20, 100 mg QD, N=43): (58.1%)
- IGA Score = 0 (‘Cleared’), subjects (%) (Week 20, 100 mg QD, N=43): (16.3%)
